Source: patent US20240261362A1, “Use Of Vetiver Product In Preparation Of Drug Having Anti-Inflammatory Effect And Capable Of Improving Animal Immunity” (Henan Agricultural University, priority 2023, published 2024)

Legend:
Assay type in all cases: in vivo
[1] = tested on: xylene-induced mouse auricle swelling; assay: Xylene-induced mouse auricle swelling; details: 0.5 mg/mouse/d intragastric, 7 d
Source text: Female SPF-grade Kunming mice weighing 18 g±1 g were purchased from Beijing HFK Bio-technology Co., Ltd., with a license number SCXK (Beijing) 2019-0008. The mice were acclimated to the environment for 3 d before the experiment, and then fed with the experimental drugs every day at 9 a.m. The mice were randomly divided into a blank control group, a dexamethasone (DXM) group, and high-, medium-, and low-dose groups of the water extract of vetiver (the water extract of vetiver prepared in Example 2) or high-, medium-, and low-dose groups of the Radix Astragali water extract (the Radix Astragali water extract prepared in Comparative Example 1), with 8 mice in each group. The mice in each group were intragastrically administered 1 time a day for 7 consecutive days. At 1 h after the final administration, 30 μL of xylene was added to the right ear of each mouse in each group, and while the left ear was kept as a control. After 30 min of the treatment, the mice were killed by neck breaking, and round ear pieces were collected by punching at a same sites of the left and right ears with a 6 mm diameter, and the ear swelling degrees and swelling inhibition rates were calculated. The results were shown in Table 6, swelling inhibition rate (%)=(average swelling degree of blank group−average swelling degree of administration group)/average swelling degree of blank group×100%.

[2] = tested on: carrageenan-induced mouse pedal swelling; assay: Carrageenan-induced mouse pedal swelling; details: 0.5 mg/mouse/d, 7 d
Source text: (§1) Female SPF-grade Kunming mice weighing 18 g±1 g were purchased from the Beijing HFK Bio-technology Co., Ltd., with a license number SCXK (Beijing) 2019-0008. The mice were acclimated to the environment for 3 d before the experiment, and then fed with the experimental drugs. The mice were randomly divided into a blank control group, a DXM group, and high-, medium-, and low-dose groups of the water extract of vetiver (the water extract of vetiver prepared in Example 2) or high-, medium-, and low-dose groups of the Radix Astragali water extract (the Radix Astragali water extract prepared in Comparative Example 1), with 8 mice in each group. The mice in each group were administered continuously for 7 d. At 1 h after the final administration, 1% carrageenan was subcutaneously injected into the sole of the right hind limb to induce inflammation (at 0.1 mL/mouse). At 0 h, 1 h, 2 h, 3 h, and 4 h of Inflammatory treatment, the thickness of the paws of the mice was measured with a micrometer, and the swelling degree and swelling inhibition rate of the paws were calculated.

[3] = NO content in serum of mice (carrageenan model); details: 0.5 mg/mouse/d, 7 d; mice of Use Example 6
Source text: as §1
The mice in each experimental group in Use Example 6 were used as research objects. Blood was collected from eyeballs, serum was separated, stored at −20° C., and level of NO in serum was determined. […]

For `C[C@@H]1C[C@H]2[C@@H]3CCC4=CC(=O)C=C[C@]4(C)[C@@]3(F)[C@@H](O)C[C@]2(C)[C@@]1(O)C(=O)CO` [DXM, dexamethasone], the Swelling degree ([1]; 30 min after xylene) was 2.033 ± 0.907 mg, the Swelling inhibition rate ([1]; vs blank group) was 60.646% and the “inhibition rate of pedal swelling” value ([2]; 0 h) was 14.323%. The pedal swelling degree ([2]; 0 h after carrageenan) was 0.995 ± 0.076, the “inhibition rate of pedal swelling” value ([2]; 1 h) was 29.302% and the pedal swelling degree ([2]; 1 h after carrageenan) was 1.090 ± 0.134. For the same molecule, the “inhibition rate of pedal swelling” value ([2]; 2 h) was 34.994%, the pedal swelling degree ([2]; 2 h after carrageenan) was 1.083 ± 0.360 and the “inhibition rate of pedal swelling” value ([2]; 3 h) was 25.884%. The pedal swelling degree ([2]; 3 h after carrageenan) was 1.328 ± 0.040, the “inhibition rate of pedal swelling” value ([2]; 4 h) was 13.173% and the pedal swelling degree ([2]; 4 h after carrageenan) was 1.438 ± 0.172. The “NO content in serum” value [3] was 7.737 ± 0.431 µmol/mL.
